Assay results: ChEMBL document CHEMBL1201862, “PubChem BioAssay data set” (2004)
The source made the active and inactive calls. Unless noted, the calls are words filed in the database; no cut-off is given here.

What was measured:
[1] = molecular target: UDP-galactopyranose mutase (Mycobacterium tuberculosis, UniProt P9WIQ1); test: Inhibitors of Mycobacterium tuberculosis UDP-galactopyranose mutase (UGM) enzyme Measured in Biochemical System Using Plate Reader - 2105-02_Inhibitor_Dose_CherryPick_Activity. [Related pubchem assays (depositor defined):AID504439]
Sequence of UDP-galactopyranose mutase (P9WIQ1 whole entry): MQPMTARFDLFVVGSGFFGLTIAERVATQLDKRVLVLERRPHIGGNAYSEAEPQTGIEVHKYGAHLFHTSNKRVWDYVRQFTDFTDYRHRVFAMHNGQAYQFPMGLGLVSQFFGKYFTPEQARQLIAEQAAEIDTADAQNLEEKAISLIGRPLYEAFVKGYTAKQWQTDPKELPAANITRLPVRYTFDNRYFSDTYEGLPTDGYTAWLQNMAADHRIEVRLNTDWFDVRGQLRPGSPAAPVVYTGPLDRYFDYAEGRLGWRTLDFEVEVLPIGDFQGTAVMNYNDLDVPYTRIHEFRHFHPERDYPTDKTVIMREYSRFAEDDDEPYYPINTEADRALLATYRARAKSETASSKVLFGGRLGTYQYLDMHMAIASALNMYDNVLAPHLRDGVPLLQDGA

[2] = molecular target: DNA (cytosine-5)-methyltransferase 1 (Homo sapiens, UniProt P26358); test: inhibition of DNA methylation by DNMT1 – biochemical, fluorescent molecular beacon, confirmation (AID 602386); format: functional
Sequence of DNA (cytosine-5)-methyltransferase 1 (P26358 whole entry): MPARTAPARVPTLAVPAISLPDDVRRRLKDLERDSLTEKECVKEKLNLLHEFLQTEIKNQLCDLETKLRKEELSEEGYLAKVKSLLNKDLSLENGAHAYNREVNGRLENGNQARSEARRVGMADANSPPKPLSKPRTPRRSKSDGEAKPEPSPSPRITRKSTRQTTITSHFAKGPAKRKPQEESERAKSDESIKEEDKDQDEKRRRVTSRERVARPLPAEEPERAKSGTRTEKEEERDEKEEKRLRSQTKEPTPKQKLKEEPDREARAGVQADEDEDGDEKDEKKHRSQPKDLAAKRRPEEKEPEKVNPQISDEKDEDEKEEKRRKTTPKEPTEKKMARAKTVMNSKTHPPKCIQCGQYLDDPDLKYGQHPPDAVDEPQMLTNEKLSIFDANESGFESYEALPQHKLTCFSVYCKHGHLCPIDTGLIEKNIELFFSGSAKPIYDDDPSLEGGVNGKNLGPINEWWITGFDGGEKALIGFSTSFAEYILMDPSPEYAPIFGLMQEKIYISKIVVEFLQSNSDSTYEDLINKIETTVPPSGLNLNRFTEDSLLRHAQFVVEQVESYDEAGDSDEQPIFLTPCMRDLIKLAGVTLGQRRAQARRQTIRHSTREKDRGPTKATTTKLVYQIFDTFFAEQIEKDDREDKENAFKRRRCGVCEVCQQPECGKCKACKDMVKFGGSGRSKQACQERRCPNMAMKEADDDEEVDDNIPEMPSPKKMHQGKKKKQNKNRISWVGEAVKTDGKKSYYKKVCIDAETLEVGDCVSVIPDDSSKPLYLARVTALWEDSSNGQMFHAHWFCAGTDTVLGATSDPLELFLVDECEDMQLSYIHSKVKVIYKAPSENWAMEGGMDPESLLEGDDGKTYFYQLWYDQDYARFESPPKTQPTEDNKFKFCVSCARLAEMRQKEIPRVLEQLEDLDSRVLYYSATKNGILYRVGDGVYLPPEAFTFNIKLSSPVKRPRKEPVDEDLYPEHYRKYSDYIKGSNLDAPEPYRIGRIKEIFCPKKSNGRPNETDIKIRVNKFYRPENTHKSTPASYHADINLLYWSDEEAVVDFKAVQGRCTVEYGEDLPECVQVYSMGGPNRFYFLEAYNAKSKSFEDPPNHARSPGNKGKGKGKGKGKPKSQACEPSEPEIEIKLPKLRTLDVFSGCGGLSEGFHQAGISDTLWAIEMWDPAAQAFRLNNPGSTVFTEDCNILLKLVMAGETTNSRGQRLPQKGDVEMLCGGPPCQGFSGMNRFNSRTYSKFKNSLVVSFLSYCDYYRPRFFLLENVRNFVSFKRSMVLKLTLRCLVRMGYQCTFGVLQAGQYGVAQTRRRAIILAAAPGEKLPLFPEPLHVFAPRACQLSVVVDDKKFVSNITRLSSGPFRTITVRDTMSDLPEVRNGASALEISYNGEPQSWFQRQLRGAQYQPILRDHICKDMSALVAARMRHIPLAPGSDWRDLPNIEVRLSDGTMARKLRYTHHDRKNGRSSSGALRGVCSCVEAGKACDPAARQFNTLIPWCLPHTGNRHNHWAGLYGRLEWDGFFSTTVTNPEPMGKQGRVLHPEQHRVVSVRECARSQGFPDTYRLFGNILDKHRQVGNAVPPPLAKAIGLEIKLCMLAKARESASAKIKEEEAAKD

[3] = molecular target: T1, Tyrosine-protein phosphatase non-receptor type 5 (Homo sapiens, UniProt P54829); test: PTPN5 enzyme inhibition – biochemical, fluorescence intensity, uHTS hits, confirmation (AID 602372); format: functional; conditions: read-out: IC50_Mean
T1 sequence (P54829 whole entry): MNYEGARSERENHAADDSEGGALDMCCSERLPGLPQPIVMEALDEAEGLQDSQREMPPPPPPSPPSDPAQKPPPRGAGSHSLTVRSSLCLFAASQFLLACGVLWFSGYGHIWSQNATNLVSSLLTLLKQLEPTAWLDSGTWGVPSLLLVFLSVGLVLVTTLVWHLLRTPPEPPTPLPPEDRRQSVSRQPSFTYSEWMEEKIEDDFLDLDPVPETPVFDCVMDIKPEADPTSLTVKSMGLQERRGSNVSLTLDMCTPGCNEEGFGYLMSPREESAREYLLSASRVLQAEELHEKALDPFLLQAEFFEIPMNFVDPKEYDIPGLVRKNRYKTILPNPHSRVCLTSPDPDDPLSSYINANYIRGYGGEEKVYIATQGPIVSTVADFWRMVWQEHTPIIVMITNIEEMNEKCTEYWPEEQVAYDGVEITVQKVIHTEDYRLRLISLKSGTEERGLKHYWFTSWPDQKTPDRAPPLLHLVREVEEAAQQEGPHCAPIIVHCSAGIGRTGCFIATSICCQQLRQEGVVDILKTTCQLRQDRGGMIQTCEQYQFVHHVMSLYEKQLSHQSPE

[4] = molecular target: T2, Tyrosine-protein phosphatase non-receptor type 22 (Homo sapiens, UniProt Q9Y2R2); test: SAR LYP1 Fluorescent Assay using OMFP substrate for In Vitro dose response studies - Set 4. [Related pubchem assays (depositor defined):AID1779, AID1784, AID2140, AID2686]; format: functional
T2 sequence (Q9Y2R2 whole entry): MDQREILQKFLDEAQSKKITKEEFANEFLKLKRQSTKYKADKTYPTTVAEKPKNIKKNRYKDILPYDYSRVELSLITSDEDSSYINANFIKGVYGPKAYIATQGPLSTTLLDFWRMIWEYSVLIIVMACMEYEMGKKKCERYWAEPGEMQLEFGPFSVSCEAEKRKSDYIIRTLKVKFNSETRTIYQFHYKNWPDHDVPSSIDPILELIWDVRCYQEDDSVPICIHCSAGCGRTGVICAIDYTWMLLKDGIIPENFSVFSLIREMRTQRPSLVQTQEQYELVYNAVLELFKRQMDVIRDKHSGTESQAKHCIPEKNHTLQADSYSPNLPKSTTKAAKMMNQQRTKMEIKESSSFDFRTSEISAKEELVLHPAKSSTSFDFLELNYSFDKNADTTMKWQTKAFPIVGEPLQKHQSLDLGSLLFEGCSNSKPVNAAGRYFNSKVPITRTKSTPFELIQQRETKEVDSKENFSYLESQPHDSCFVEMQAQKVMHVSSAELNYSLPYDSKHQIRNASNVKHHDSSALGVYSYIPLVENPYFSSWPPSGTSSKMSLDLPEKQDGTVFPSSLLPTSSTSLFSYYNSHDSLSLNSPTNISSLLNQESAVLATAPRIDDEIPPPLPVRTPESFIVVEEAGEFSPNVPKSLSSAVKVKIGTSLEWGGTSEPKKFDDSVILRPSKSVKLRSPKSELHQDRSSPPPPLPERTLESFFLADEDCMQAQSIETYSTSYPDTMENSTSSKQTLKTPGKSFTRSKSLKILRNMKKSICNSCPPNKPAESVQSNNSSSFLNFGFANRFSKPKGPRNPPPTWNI

[5] = molecular target: T2, Tyrosine-protein phosphatase non-receptor type 22; test: PubChem AID 2140
[6] = molecular target: T2, Tyrosine-protein phosphatase non-receptor type 22; test: SAR LYP1 Fluorescent Assay using pCAP substrate for In Vitro dose response studies - Set 2. [Related pubchem assays (depositor defined):AID1779, AID1784, AID2135, AID449727]; format: functional
Protein Tat = molecular target: T3, Protein Tat (Human immunodeficiency virus type 1 group M subtype B (isolate HXB2)(HIV-1), UniProt P04608); format: functional;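 further: tat binding to TAR RNA read out by fluorescence polarization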
T3 sequence (P04608 whole entry): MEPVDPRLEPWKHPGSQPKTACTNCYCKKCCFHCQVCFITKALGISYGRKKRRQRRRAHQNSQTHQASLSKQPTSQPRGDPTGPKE

[7] = molecular target: T4, DNA repair and recombination protein RAD54-like (Homo sapiens, UniProt Q92698); test: RAD54 Holliday junction migration blockers – biochemical, fluorescence, cherry-picked samples, dose series, confirmation (AID 651657); format: functional
T4 sequence (Q92698 whole entry): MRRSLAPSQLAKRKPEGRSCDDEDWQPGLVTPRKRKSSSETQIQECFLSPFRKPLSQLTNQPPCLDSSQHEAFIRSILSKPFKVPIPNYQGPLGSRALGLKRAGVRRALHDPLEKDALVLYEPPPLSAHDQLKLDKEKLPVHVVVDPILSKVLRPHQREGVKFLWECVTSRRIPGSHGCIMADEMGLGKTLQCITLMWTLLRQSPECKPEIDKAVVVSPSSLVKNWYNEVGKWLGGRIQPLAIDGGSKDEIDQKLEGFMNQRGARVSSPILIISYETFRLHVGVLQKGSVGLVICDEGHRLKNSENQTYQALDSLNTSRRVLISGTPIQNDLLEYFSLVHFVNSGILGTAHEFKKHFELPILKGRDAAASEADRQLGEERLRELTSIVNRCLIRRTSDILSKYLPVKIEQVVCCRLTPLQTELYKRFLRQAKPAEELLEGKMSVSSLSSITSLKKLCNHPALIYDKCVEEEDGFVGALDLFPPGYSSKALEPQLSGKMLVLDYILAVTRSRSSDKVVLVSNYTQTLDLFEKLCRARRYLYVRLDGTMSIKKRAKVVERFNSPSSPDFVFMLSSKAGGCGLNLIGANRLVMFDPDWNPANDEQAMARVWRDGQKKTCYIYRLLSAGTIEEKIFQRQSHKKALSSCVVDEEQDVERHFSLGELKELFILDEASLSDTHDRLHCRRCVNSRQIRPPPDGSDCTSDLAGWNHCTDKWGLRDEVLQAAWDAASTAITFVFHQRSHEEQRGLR

For `Nc1ccc2nc3c(O)nc(S)nc3nc2c1`, the AC50 [1] was 3.57 µM (active).
`CSc1ccc(C=NNc2ccc(S(=O)(=O)Nc3ccccc3C(=O)O)cc2[N+](=O)[O-])cc1` was tested, and the IC50 [2] was 3.26 µM (active) and the IC50 [3] was 4.12 µM (active).
In the case of `O=C(O)COc1ccc(/C=N/NC(=O)c2ccc(-c3csc(Nc4ccc(Cl)cc4)n3)cc2)cc1`, the IC50 [4] is reported as 1.47 µM (active), the IC50 [5] is reported as 6.07 µM (active) and the IC50 [6] is reported as 0.249 µM (active).
With `COc1cc(NCCCNC(C)C)c2nccc(C)c2c1` the IC50 (Protein Tat) was > 100 µM (active) and the AC50 [7] was 49.6 µM (active).
